Target: hemoglobin (Homo sapiens, UniProt P68871+P69905)
Assay: resonance Raman spectroscopy of oxygenated hemoglobin, percentage of "R" state
Assay type: biochemical
Settings: varying mole ratio to hemoglobin tetramer, 532 nm excitation, oxygen atmosphere
Excerpt: In order to evaluate the effect of ferulic acid on stabilizing the oxygenated hemoglobin in the low oxygen affinity “T” state, compounds including 2,3-BPG (group A0) and ferulic acid (group A1) are mixed with hemoglobin as a function of their mole ratio to hemoglobin, followed by the resonance Raman spectroscopy measurements at 532 nm excitation wavelength under the oxygen atmosphere. The percentages of the high oxygen affinity “R” state for hemoglobin treated with 2,3-BPG (shown in FIG. 2a, as reference) and ferulic acid (shown in FIG. 2b) are analyzed from the resonance Raman spectroscopy measurements. In more specific, the percentage of high oxygen affinity “R” state for each treated hemoglobin was obtained by fitting a simulated spectrum comprised of adjustable weighing factors of the T and R states of pure hemoglobin to the obtained resonance Raman spectrum of treated hemoglobin.

Sequence of hemoglobin (P69905 2-142): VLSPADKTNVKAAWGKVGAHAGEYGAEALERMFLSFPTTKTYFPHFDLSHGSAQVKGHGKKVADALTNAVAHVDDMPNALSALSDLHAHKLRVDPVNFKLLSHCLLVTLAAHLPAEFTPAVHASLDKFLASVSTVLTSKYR
Sequence of hemoglobin (P68871 2-147): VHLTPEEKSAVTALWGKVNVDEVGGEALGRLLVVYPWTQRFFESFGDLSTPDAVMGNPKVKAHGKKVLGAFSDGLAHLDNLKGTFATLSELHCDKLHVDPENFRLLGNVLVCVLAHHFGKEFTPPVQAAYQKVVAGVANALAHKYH

O=C(O)C(COP(=O)(O)O)OP(=O)(O)O (centres unmarked) [2,3-BPG, 2,3-bisphosphoglycerate]
"R" state suppression efficiency: about 20%

COc1cc(/C=C/C(=O)O)ccc1O [ferulic acid]
"R" state suppression efficiency: higher than 50%
